Measured values: ChEMBL document CHEMBL1909046, “DrugMatrix in vitro pharmacology data”

Tests used:
[1] = DRUGMATRIX: Atrial Natriuretic Factor (ANF) radioligand binding (ligand: [125I] ANF (rat)); assay type: cell membranes, Cavia porcellus, Dunkin-Hartley, Adrenal gland, Membrane; conditions: Not Active = under 50% inhibition at 10 µM
Adenosine receptor A2a = Adenosine receptor A2a (Homo sapiens, UniProt P29274); test: DRUGMATRIX: Adenosine A2A radioligand binding (ligand: […]); assay type: cell membranes, HEK293, Membrane; conditions: hek293; Not Active = under 50% inhibition at 10 µM
[2] = DRUGMATRIX: Glutamate, NMDA, Agonism radioligand binding (ligand: [3H] CGP-39653); assay type: cell membranes, Rattus norvegicus, Wistar, Cerebral cortex, Membrane; conditions: Not Active = under 50% inhibition at 10 µM
[3] = molecular target: T1, Alpha-2A adrenergic receptor (Homo sapiens, UniProt P08913); assay type: cell membranes, Sf9, Membrane; conditions: sf9; note: in other assays of this panel Not Active means under 50% inhibition at 10 µM
T1 sequence (P08913 whole entry): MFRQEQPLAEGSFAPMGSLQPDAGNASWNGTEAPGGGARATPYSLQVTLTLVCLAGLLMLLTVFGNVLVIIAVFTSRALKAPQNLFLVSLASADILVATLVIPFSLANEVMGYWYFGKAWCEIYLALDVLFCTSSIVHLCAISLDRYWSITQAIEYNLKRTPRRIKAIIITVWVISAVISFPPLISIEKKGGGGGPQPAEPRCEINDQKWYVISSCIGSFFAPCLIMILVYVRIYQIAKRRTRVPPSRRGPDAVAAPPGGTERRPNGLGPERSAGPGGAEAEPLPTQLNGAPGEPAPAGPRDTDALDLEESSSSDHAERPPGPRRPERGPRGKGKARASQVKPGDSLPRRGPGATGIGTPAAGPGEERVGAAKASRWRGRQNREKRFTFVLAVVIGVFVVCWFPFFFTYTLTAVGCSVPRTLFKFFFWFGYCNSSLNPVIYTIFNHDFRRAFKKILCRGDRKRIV

[4] = molecular target: Aldo-keto reductase family 1 member B1 (Rattus norvegicus, UniProt P07943); assay type: tissue-based, Lens of camera-type eye;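 note: inhibition of aldose reductase enzyme activity, measured with DL-glyceraldehyde as the substrate; in other assays of this panel Not Active means under 50% inhibition at 10 µM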
Adenosine receptor A3 = molecular target: T2, Adenosine receptor A3 (Homo sapiens, UniProt P0DMS8); assay type: cell membranes, CHO-K1, Membrane; conditions: cho-k1;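 note: radioligand binding assay with AB-MECA serving as the labeled ligand; in other assays of this panel Not Active means under 50% inhibition at 10 µM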
T2 sequence (P0DMS8 whole entry): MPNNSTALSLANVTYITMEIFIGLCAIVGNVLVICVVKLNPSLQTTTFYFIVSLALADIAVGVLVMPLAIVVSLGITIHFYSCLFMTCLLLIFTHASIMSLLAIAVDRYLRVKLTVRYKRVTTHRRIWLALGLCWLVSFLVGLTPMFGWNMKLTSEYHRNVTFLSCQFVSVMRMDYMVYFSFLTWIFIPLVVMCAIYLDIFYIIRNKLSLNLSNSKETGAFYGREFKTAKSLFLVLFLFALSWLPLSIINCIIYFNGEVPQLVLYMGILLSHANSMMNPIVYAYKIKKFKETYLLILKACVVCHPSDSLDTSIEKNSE

[5] = DRUGMATRIX: Leukotriene, BLT (LTB4) radioligand binding (ligand: [3H]LTB4); assay type: cell membranes, Membrane; conditions: u-937; Not Active = under 50% inhibition at 10 µM
[6] = DRUGMATRIX: Sodium/nucleoside co-transporter radioligand binding (ligand: nitrobenzylthioinosine); assay type: cell membranes, Cavia porcellus, Dunkin-Hartley, Cerebral cortex, Membrane; conditions: Not Active = under 50% inhibition at 10 µM
[7] = molecular target: T3, Alpha-1D adrenergic receptor (Homo sapiens, UniProt P25100); assay type: cell membranes, HEK293, Membrane; conditions: hek293; note: in other assays of this panel Not Active means under 50% inhibition at 10 µM
T3 sequence (P25100 whole entry): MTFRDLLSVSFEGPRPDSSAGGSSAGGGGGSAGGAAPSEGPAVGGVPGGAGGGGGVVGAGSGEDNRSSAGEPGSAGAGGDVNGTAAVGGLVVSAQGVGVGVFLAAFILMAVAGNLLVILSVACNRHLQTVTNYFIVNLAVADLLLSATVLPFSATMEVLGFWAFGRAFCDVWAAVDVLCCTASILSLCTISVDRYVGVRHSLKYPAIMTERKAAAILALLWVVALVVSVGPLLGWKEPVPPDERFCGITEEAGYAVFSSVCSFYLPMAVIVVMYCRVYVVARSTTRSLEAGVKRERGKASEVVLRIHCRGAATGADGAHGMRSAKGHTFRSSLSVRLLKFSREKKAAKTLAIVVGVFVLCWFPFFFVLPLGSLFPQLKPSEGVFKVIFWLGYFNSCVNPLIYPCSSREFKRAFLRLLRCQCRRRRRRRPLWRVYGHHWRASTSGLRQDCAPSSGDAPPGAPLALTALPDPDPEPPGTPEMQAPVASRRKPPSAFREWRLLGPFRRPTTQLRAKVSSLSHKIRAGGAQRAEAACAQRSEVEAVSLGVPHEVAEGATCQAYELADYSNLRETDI

[8] = molecular target: T4, Muscarinic acetylcholine receptor M2 (Homo sapiens, UniProt P08172); assay type: cell membranes, CHO-K1, Membrane; conditions: cho-k1; note: in other assays of this panel Not Active means under 50% inhibition at 10 µM
T4 sequence (P08172 whole entry): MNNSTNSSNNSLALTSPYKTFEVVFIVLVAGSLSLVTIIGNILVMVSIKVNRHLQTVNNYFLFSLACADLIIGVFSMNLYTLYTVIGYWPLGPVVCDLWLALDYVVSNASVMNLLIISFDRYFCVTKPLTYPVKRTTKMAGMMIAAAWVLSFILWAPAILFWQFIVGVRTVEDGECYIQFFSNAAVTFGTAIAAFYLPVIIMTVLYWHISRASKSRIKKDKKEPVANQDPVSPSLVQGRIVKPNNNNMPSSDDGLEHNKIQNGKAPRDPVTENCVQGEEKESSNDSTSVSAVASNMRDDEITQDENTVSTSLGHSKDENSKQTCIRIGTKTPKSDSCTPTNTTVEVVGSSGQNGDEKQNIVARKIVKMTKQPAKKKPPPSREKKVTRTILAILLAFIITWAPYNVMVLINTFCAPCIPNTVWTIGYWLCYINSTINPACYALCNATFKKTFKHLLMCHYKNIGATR

Melanocortin receptor 5 = Melanocortin receptor 5 (Homo sapiens, UniProt P33032); assay type: cell membranes, HEK293, Membrane; conditions: hek293; note: in other assays of this panel Not Active means under 50% inhibition at 10 µM
Substance-P receptor = Substance-P receptor (Homo sapiens, UniProt P25103); assay type: cell membranes, CHO, Membrane; conditions: cho; note: in other assays of this panel Not Active means under 50% inhibition at 10 µM
Chain of Substance-P receptor (P25103 whole entry): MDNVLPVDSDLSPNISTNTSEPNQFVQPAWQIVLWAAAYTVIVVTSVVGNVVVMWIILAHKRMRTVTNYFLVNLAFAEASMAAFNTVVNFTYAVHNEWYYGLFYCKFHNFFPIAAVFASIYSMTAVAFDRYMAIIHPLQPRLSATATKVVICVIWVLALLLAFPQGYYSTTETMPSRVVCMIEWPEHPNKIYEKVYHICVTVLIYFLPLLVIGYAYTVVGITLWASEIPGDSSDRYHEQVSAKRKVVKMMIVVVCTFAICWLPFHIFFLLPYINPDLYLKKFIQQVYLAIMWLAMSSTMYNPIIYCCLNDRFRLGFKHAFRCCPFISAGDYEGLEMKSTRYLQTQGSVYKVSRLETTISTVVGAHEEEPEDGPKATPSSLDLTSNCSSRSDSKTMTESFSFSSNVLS

Chain of Adenosine receptor A2a (P29274 whole entry): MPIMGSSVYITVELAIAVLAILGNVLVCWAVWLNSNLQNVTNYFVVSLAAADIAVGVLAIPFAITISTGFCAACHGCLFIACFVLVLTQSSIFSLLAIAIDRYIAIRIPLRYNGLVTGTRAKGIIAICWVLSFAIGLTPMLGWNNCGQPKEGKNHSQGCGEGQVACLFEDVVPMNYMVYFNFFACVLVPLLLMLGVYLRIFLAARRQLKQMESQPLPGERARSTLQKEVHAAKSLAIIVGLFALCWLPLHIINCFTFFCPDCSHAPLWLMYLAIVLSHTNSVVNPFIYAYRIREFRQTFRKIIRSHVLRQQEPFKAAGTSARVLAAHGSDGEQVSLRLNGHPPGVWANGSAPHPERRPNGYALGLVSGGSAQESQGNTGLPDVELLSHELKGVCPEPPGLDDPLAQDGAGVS
Chain of Melanocortin receptor 5 (P33032 whole entry): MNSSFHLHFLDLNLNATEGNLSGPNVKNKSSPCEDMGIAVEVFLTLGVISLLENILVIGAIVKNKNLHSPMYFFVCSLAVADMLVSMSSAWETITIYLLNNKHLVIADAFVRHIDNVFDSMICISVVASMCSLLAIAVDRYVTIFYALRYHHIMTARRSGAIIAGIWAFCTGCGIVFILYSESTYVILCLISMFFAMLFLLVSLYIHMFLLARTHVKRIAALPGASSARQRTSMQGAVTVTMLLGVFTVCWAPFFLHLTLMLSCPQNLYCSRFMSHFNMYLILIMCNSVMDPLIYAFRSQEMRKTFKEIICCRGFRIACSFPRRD

Nc1nc2c(ncn2COC(CO)CO)c(=O)[nH]1 [GANCICLOVIR]
Not Active: IC50 [1] | Ki [1] | IC50 (Adenosine receptor A2a) | IC50 [2] | Ki [2] | IC50 [3] | IC50 [4] | IC50 (Adenosine receptor A3) | IC50 [5] | Ki [5] | IC50 [6] | Ki [6] | IC50 [7] | IC50 [8] | IC50 (Melanocortin receptor 5) | IC50 (Substance-P receptor)

COc1c(N2CCNC(C)C2)c(F)cc2c(=O)c(C(=O)O)cn(C3CC3)c12 (stereo not given) [GATIFLOXACIN]
Not Active: IC50 [1] | Ki [1] | IC50 (Adenosine receptor A2a) | IC50 [2] | Ki [2] | IC50 [3] | IC50 [4] | IC50 (Adenosine receptor A3) | IC50 [5] | Ki [5] | IC50 [6] | Ki [6] | IC50 [7] | IC50 [8] | IC50 (Melanocortin receptor 5) | IC50 (Substance-P receptor)

NCC(=O)O [GLYCINE]
Not Active: IC50 [1] | Ki [1] | IC50 (Adenosine receptor A2a) | IC50 [2] | Ki [2] | IC50 [3] | IC50 [4] | IC50 (Adenosine receptor A3) | IC50 [5] | Ki [5] | IC50 [6] | Ki [6] | IC50 [7] | IC50 [8] | IC50 (Melanocortin receptor 5) | IC50 (Substance-P receptor)

CC1(C)[C@@H](O[C@H]2O[C@H](C(=O)O)[C@@H](O)[C@H](O)[C@H]2O[C@@H]2O[C@H](C(=O)O)[C@@H](O)[C@H](O)[C@H]2O)CC[C@]2(C)[C@H]3C(=O)C=C4[C@@H]5C[C@@](C)(C(=O)O)CC[C@]5(C)CC[C@@]4(C)[C@]3(C)CC[C@@H]12 [GLYCYRRHIZIN]
Not Active: IC50 [1] | Ki [1] | IC50 (Adenosine receptor A2a) | IC50 [2] | Ki [2] | IC50 [3] | IC50 [4] | IC50 (Adenosine receptor A3) | IC50 [5] | Ki [5] | IC50 [6] | Ki [6] | IC50 [7] | IC50 [8] | IC50 (Melanocortin receptor 5) | IC50 (Substance-P receptor)

COC1=CC(=O)C[C@@H](C)[C@]12Oc1c(Cl)c(OC)cc(OC)c1C2=O [GRISEOFULVIN]
Not Active: IC50 [1] | Ki [1] | IC50 (Adenosine receptor A2a) | IC50 [2] | Ki [2] | IC50 [3] | IC50 [4] | IC50 (Adenosine receptor A3) | IC50 [5] | Ki [5] | IC50 [6] | Ki [6] | IC50 [7] | IC50 [8] | IC50 (Melanocortin receptor 5) | IC50 (Substance-P receptor)

C/C=C1\[C@H]2C=C(C)C[C@]1(N)c1ccc(=O)[nH]c1C2 [HUPERZINE A]
Not Active: IC50 [1] | Ki [1] | IC50 (Adenosine receptor A2a) | IC50 [2] | Ki [2] | IC50 [3] | IC50 [4] | IC50 (Adenosine receptor A3) | IC50 [5] | Ki [5] | IC50 [6] | Ki [6] | IC50 [7] | IC50 [8] | IC50 (Melanocortin receptor 5) | IC50 (Substance-P receptor)

NS(=O)(=O)c1cc2c(cc1Cl)NCNS2(=O)=O [HYDROCHLOROTHIAZIDE]
Not Active: IC50 [1] | Ki [1] | IC50 (Adenosine receptor A2a) | IC50 [2] | Ki [2] | IC50 [3] | IC50 [4] | IC50 (Adenosine receptor A3) | IC50 [5] | Ki [5] | IC50 [6] | Ki [6] | IC50 [7] | IC50 [8] | IC50 (Melanocortin receptor 5) | IC50 (Substance-P receptor)

O=P1(NCCCl)OCCCN1CCCl (stereo not given) [IFOSFAMIDE]
Not Active: IC50 [1] | Ki [1] | IC50 (Adenosine receptor A2a) | IC50 [2] | Ki [2] | IC50 [3] | IC50 [4] | IC50 (Adenosine receptor A3) | IC50 [5] | Ki [5] | IC50 [6] | Ki [6] | IC50 [7] | IC50 [8] | IC50 (Melanocortin receptor 5) | IC50 (Substance-P receptor)

CN1CCC[C@H]1c1cccnc1 [NICOTINE]
Not Active: IC50 [1] | Ki [1] | IC50 (Adenosine receptor A2a) | IC50 [2] | Ki [2] | IC50 [3] | IC50 [4] | IC50 (Adenosine receptor A3) | IC50 [5] | Ki [5] | IC50 [6] | Ki [6] | IC50 [7] | IC50 [8] | IC50 (Melanocortin receptor 5) | IC50 (Substance-P receptor)

O=C1CN=C(c2ccccc2)c2cc([N+](=O)[O-])ccc2N1 [NITRAZEPAM]
Not Active: IC50 [1] | Ki [1] | IC50 (Adenosine receptor A2a) | IC50 [2] | Ki [2] | IC50 [3] | IC50 [4] | IC50 (Adenosine receptor A3) | IC50 [5] | Ki [5] | IC50 [6] | Ki [6] | IC50 [7] | IC50 [8] | IC50 (Melanocortin receptor 5) | IC50 (Substance-P receptor)
